Reference: patent US8715658B2, “Methods for treating conditions mediated by the inflammatory cytokine cascade using GAPDH inhibitors” (The Feinstein Institute for Medical Research, priority 2009, dated 2014)

Key:
human whole blood = assay: Human whole blood assay, plasma TNF by ELISA; format: cell-based
Description: Human whole blood was obtained from anonymous donors from the Long Island Blood Services. The blood was aliquotted into 48-well plates at 250 μl/well. Aliquots were then treated as indicated at 37° C. for four hours. Samples were centrifuged to separate plasma at 5000 rpm for five minutes at room temperature. TNF levels in the plasma were determined by ELISA as described above.
IgG from α-GAPDH #4418 antiserum was purified using protein A/G sepharose (Pierce). Purified IgG was used to test for the ability of α-GAPDH #4418 to neutralize GAPDH activity. Six conditions were tested: GAPDH (10 μg/ml) alone, GAPDH plus non-specific rabbit IgG (100 ug/ml), GAPDH plus α-GAPDH #4418 (100 ug/ml), α-GAPDH #4418 alone, non-specific rabbit IgG alone. The GAPDH plus α-GAPDH #4418 treatment was pre-incubated at room temperature for 30 minutes prior to applying the mixture to the whole blood.

mice = assay: GST-GAPDH challenge in mice, clinical sickness scoring; format: in vivo; conditions: FIG. 9
cultured macrophages = assay: GST-GAPDH on cultured macrophages, inflammatory responses; format: cell-based; conditions: FIG. 7
RAW264.7 cells = RAW264.7 cells challenged with GAPDH for cytokine (TNF) elicitation, ELISA; format: cell-based, murine; conditions: 50 μg/ml GAPDH, 4 hours, FIG. 2
Description: Murine macrophage-like RAW264.7 cells were obtained from the American Type Tissue collection (ATTC). The RAW264.7 cells were cultured in Dulbecco's Modified Essential Medium (DMEM) (Gibco) supplemented with 1% heat-inactivated fetal bovine serum (FBS) (BioWhittaker), and 2 mM L-glutamine, and 100 μg/ml penicillin and streptomycin (all from Sigma). Raw264.7 cultures were incubated at 37° C. under 5% CO2. The cells were serum-deprived in 1% FBS medium for the purpose of slowing the cell cycle to synchronize the cell population. Serum deprivation of the cells also limits available growth factors, minimizing the level of intracellular signaling in pathways that lead to the activation of mitogen-activated protein (MAP) kinases. It is interesting to note that immune challenges such as bacterial endotoxin (LPS) also activate MAP kinases to generate inflammatory responses, and thus high levels of FBS would interfere with the detection of MAP kinase signals that are elicited by the specific immune challenges that this study investigates. RAW264.7 cells were used at approximately 70% confluence, and all treatments were carried out in serum-free Opti-MEM I medium.
RAW264.7 cells at approximately 70% confluence were kept in serum-free Opti-MEM I for 20 minutes prior to treatments. […]

Peritoneal macrophages = assay: TNF response of peritoneal macrophages from wildtype, TLR2, TLR4 or RAGE deficient mice to GAPDH; format: cell-based; conditions: FIG. 3; for TNF release: 50 μg/ml GAPDH
Description: Peritoneal macrophages harvested from Wildtype, Toll-like receptor (TLR) 2, TLR4, or Receptor for Advanced Glycation Endproducts (RAGE) deficient mice were resuspended in RPMI1640 medium (Gibco) supplemented with 10% FBS and 2 mM L-glutamine, and 100 μg/ml penicillin and streptomycin, and plated at 1×10^6 cells/well into 24-well Primaria tissue culture plates (Falcon). Cultures were maintained for 24 h at 37° C. under 5% CO2. 30 minutes prior to experimentation, culture medium was replaced by serum free Opti-MEM I medium, and all treatments were conducted in serum free Opti-MEM I medium as described.
RAW264.7 cells at approximately 70% confluence were kept in serum-free Opti-MEM I for 20 minutes prior to treatments. Cells were challenged with a concentration range of purified recombinant GAPDH (produced on site) to determine concentration-dependent responsiveness of inflammatory mediator production. The concentration range consisted of seven concentrations of GAPDH in a five-fold dilution series (50 μg/ml, 10 μg/ml, 2 μg/ml, 0.4 μg/ml, 0.08 μg/ml, 0.016 μg/ml, 0 μg/ml). Cells were incubated at 37° C. and 5% CO2 for 4 hours (TNF). After treatment, the media was harvested and transferred to tubes, and M-cell lysis reagent was applied to the cells. […] The media samples were applied to Enzyme-Linked ImmunoSorbent Assays (ELISA) directed against mouse-TNF (all ELISA reagents were obtained from R+D systems). These ELISA plates were set up and run according to the manufacturer's recommendations. Briefly, samples were incubated overnight in the ELISA plate on a rocker at 4° C. Plates were washed 3× with phosphate-buffered saline supplemented with 0.05% TWEEN-20, and detection antibody diluted at 1:2000 in 1% bovine serum albumin (BSA) was applied to the plates for 2 hours. The plates were washed again as above, and strepavidin-HRP diluted at 1:2000 in 1% BSA was applied to the plates for 15 minutes. The plates were washed again as above, then developed by applying substrate reagent to each well. Reactions were stopped by adding 2M H2SO4 when the standard curve had become obvious, typically 8 to 10 minutes.

IκBα = assay: RAW264.7 cells challenged with GAPDH or LPS, IκBα degradation (NF-κB pathway) by Western blot; format: cell-based, murine; conditions: 50 μg/ml GAPDH or 20 ng/ml LPS, time-course 0-180 min, FIG. 4
Description: (§1) RAW264.7 cells at approximately 70% confluence were kept in serum-free Opti-MEM I for 20 minutes prior to treatments. Cells were challenged with either GAPDH or LPS in a time-course with […] time points (180 min, 120 min, 60 min, 30 min, 15 min, and 0 min). The GAPDH treatment consisted of purified GAPDH diluted to 50 μg/ml in Opti-MEM I. The LPS treatment consisted of LPS (sonicated approximately 30 minutes before use) diluted to 20 ng/ml into Opti-MEM I. Treatments used for time-course experiments were incubated in a 37° C. water bath to maintain culture temperature between time points and sonicated for five minutes before use. […] Bound IκBα antibody was detected using a 1:2000 dilution of HRP-conjugated anti-mouse IgG in 2.5% milk; bound JNK antibody was detected using a 1:2000 dilution of HRP-conjugated anti-rabbit IgG in 2.5% milk. […]
(§2) RAW264.7 macrophage-like cells were challenged with either 50 μg/ml GAPDH or 20 ng/ml LPS in a time-course consisting of six time points ranging from 180 min to 0 min. […] Protein assays were conducted on cell lysates in order to standardize the quantity of protein loaded into each well of SDSPAGE gels for separation. […]

JNK = assay: RAW264.7 cells challenged with GAPDH or LPS, JNK activation by Western blot; format: cell-based, murine; conditions: 50 μg/ml GAPDH or 20 ng/ml LPS
Description: as §1, §2

Question: How did the “inflammatory cytokine response from human blood” value (human whole blood; FIG. 8) turn out when “GST-GAPDH: purified recombinant GST-GAPDH, a stable tetramer” was run?
Answer: The value was “elicit inflammatory cytokine response”.

Question: And the “interaction of inflammatory response with LPS” value (human whole blood; human blood, FIG. 8)?
Answer: Its value is “synergistic with LPS”.

Question: And the “sickness by clinical scoring parameters (piloerection, closed eyes, diarrhea, tremoring, activity, relative temperature)” value (mice)?
Answer: The value was “cause sickness”.

Question: What about the “inflammatory responses from cultured macrophages” value (cultured macrophages) of the same substance?
Answer: The value was “elicits inflammatory responses”.

Question: For “GAPDH: purified recombinant human GAPDH (produced on site), tested as candidate inflammatory cytokine”, which TNF release (RAW264.7 cells) is on record?
Answer: Its TNF release is “approximately 2250 pg/mg of cellular protein”.

Question: And the TNF release (Peritoneal macrophages; RAGE deficient macrophages)?
Answer: The TNF release was “approximately 4500 pg TNF/mg cell protein”.

Question: What about the TNF release (Peritoneal macrophages; TLR2 deficient macrophages) of the same substance?
Answer: The TNF release was about 5000 pg TNF/mg cell protein.

Question: What about the TNF response (Peritoneal macrophages; TLR4 deficient macrophages) of the same substance?
Answer: The TNF response was “did not mount a significant response”.

Question: And the TNF release (Peritoneal macrophages; wild type macrophages)?
Answer: The TNF release was “approximately 6000 pg TNF/mg cellular protein”.

Question: And the “basal level of IκBα (degradation)” value (IκBα)?
Answer: Its value is “decreased dramatically and was nearly undetectable by 30 minutes post treatment”.

Question: What about the “increase in activated JNK levels” value (JNK; 30 minutes after challenge) of the same substance?
Answer: Its value is “approximately eight-fold”.

Question: And the “increase in activated JNK levels” value (JNK; 60 minutes after challenge)?
Answer: Its value is “approximately fifteen-fold”.

Question: What about the “plasma TNF levels” value (human whole blood; 10 μg/ml challenge, four hours, human whole blood, FIG. 5) of the same substance?
Answer: The value was “approximately 450 pg/ml”.
